Laboratory results from US6150414A, “Compositions and methods for treating viral infections” (priority 1992, dated 2000).
“And” between values parts separate entries of the source, which are not always exact repeats. Equal values may be shown once. Read-outs that look alike come from different tables or passages of the source.

System: Friend Leukemia Virus
Experiment: Inhibition of Friend Leukemia Virus-induced splenomegaly in mice, compounds intraperitoneally 24 hours after virus (Example 1(a))
Assay type: in vivo, BALB/c mice
Parameters: Actual Spleen Weight / Average Spleen Weight: unit not given here
Conditions: for inhibition in vivo at 0.1 mg / inhibition in vivo at 0.05 mg / inhibition in vivo at 0.2 mg: Mus musculus, ip; for Pooled Average % Inhibition: pooled over 50, 100, 200, 2 × 100 micrograms; for Actual Spleen Weight: single animal; for inhibition of FV-induced splenomegaly / anti-retroviral activity: Example 1(a)
Text: The effects of compositions according to the present invention on infection of mammals with Friend Leukemia Virus (FV) were examined.
Friend Leukemia Virus is an aggressive retrovirus which induces an acute erythroleukemia in sensitive strains of mice such as BALB/c and NIH swiss mice as described in Friend, C. J., Exp. Med. 105: 307-324, 1957; Friend, C. et al. Proc. Natl. Acad. Sci. USA 68: 378-383, 1971; Friend, C. et al. Natl. Cancer Inst. Mongr. 22: 508-552, 1966. The malignant transformation is the result of the combined activities of the Spleen Focus Forming Virus (SFFV) and the ecotropic Murine Friend Leukemia Helper Virus (F-MuLV). The acute erythroleukemia is characterized by hepatosplenomegaly (a marked increase in the size of the spleen and liver) and a severe anemia.
Friend Leukemia Virus was prepared by homogenizing the enlarged spleen of a mouse previously infected with FV, 10 days after intravenous virus injection. The spleen was homogenized in phosphate buffered saline in a volume equal to ten times the weight of the isolated spleen.
The effects of compositions according to the present invention on the increase in spleen size (splenomegaly) of BALB/c mice (Jackson Labs, Bar Harbor, ME) was examined. In these experiments, the virus (10^6 focus forming units--FFU) was inoculated intravenously and 100 micrograms of the compounds indicated in Table II were administered to the mice intraperitoneally 24 hours later. Each compound was administered once to two mice. The animals were sacrificed ten days later and their spleens weighed.
The present assay has been developed from similar assays using hypericin or pseudohypericin and employing higher numbers of experimental animals per group (e.g. 4 animals). It was discovered however that the specificity and sensitivity of this assay are such that an experimental group of two animals is of more than adequate predictive value.
As used in Table II (and subsequent Tables of this Example l(a) and (b), "average percent inhibition" is calculated as follows: [formula] wherein "ASWNC" designates "average spleen weight of negative control"; "ASWE" designates "average spleen weight of experimental (treated) subject"; and "ASWPC" designates "average spleen weight of positive control". Average spleen weight is the numerical average of spleen weights of each experimental group (in Table II each such group includes two members).
In these experiments, the virus (10^6 focus forming units--FFU) was inoculated intravenously, and the indicated doses of the antiviral compounds of this invention were administered to the BALB/c mice intraperitoneally 24 hours later. The animals were then sacrificed ten days later and their spleens weighed.
Pseudohypericin was diluted in phosphate buffered saline with 1% ethanol.
An expanded series of experiments was next performed in which various concentrations (i.e. 50, 100, 200 and 2×100, i.e., 100 micrograms administered twice) of a different set of PAC compounds (numbers 16-29 and 30-36 in Table III below) were administered intraperitoneally each according to the same protocol described above. Compounds 16-29 all had 3-5 fused, aromatic rings and no side groups except for oxygen or hydroxyl groups, whereas compounds 30-36 all had 3 fused aromatic rings and side chains selected from the group of oxygen, hydroxyl and methyl.
When 2 doses of the compounds were given, the second dose was administered 24-48 hours after the first injection. The animals were infected and splenomegaly determined as above for the compounds in Table II. In Table III, "pooled average percent inhibition" is calculated by adding the average percent inhibition for each experiment with the same compound and dividing the sum by the number of experiments (i.e. the number 4). […]

[1] = dose 2 × 100 (micrograms) i.p., Table III, read-out: Average Perdosage % Inhibition
[2] = dose 50 (micrograms) i.p., Table III, read-out: Average Perdosage % Inhibition
[3] = dose 100 (micrograms) i.p., Table III, read-out: Average Perdosage % Inhibition
[4] = dose 200 (micrograms) i.p., Table III, read-out: Average Perdosage % Inhibition
[5] = dose 2 × 100 (micrograms) i.p., Table III
[6] = dose 50 (micrograms) i.p., Table III
[7] = dose 100 (micrograms) i.p., Table III
[8] = dose 200 (micrograms) i.p., Table III
[9] = 100 micrograms i.p. once, 24 h after FV, Table II
[10] = 24 h, read-out: Average % Inhibition, 100 micrograms i.p. once, 24 h after FV, Table II
[11] = 24 h, 100 micrograms i.p. once, 24 h after FV, Table II, read-out: Average % Inhibition
[12] = read-out: Average Perdosage % Inhibition, dose 2 × 100 (micrograms) i.p., Table III
[13] = read-out: Average Perdosage % Inhibition, dose 50 (micrograms) i.p., Table III
[14] = read-out: Average Perdosage % Inhibition, dose 100 (micrograms) i.p., Table III
[15] = read-out: Average Perdosage % Inhibition, dose 200 (micrograms) i.p., Table III

SMILES	inhibition in vivo at 0.1 mg [1] [%]	inhibition in vivo at 0.05 mg [2] [%]	inhibition in vivo at 0.2 mg [4] [%]	Average Spleen Weight [5]	Average Spleen Weight [6]	Average Spleen Weight [7]	Average Spleen Weight [8]	Pooled Average % Inhibition (Table III) [%]	Average Spleen Weight [9]	other results
c1ccc(C2=C(c3ccccc3)C(c3ccccc3)=C(c3ccccc3)C2)cc1 [Compound 26, 1,2,3,4-Tetraphenyl-1,3-cyclopentadiene]	0	27	33	1.5966	1.1985	1.0280	1.1131	25		inhibition in vivo at 0.1 mg [3]: 39%
c1ccc2c(c1)CCc1ccccc1-2 [Compound 20]	6	22	11	1.5023	1.2758	2.0019	1.4315	3		
O=C1OC(=O)c2ccc3c4ccc5c6c(ccc(c7ccc1c2c73)c64)C(=O)OC5=O [Compound 2, 3,4,9,10-Perylenetetracarboxylic dianhydride]									0.8439	Average % Inhibition [9]: 1.3%; Actual Spleen Weight [9]: 0.8678 and 0.8200
O=c1oc(=O)c2c3ccc4cccc5c6cccc7ccc(c12)c(c76)c3c45 [Compound 5, Benzo(GHI)Perylene-1,2-Dicarboxylic Anhydride]									0.5101	inhibition in vivo at 0.1 mg [10]: 40.5%
O=C1c2ccccc2C(=O)C1c1ccccc1 [Compound 33, 2-phenyl-1,2 inadione]	61	60	68	0.9127	0.9410	1.7763	0.7938	51		inhibition in vivo at 0.1 mg [3]: 16%
O=C1CC2CCc3ccc4ccccc4c3C2c2c1ccc1ccccc21 (centres unmarked) [Compound 15, 3,4,4A,5,6,12C-Hexahydrophenanthro (3,4-C)phenanthren-3-one]									0.3739	inhibition in vivo at 0.1 mg [11]: 56.3%
Cc1ccc2cc3ccccc3cc2c1 [Compound 25, 2-Methylanthracene]				1.1758	1.2104	1.0606	1.1904	30		inhibition in vivo at 0.1 mg [12]: 29%; inhibition in vivo at 0.05 mg [13]: 26%; inhibition in vivo at 0.1 mg [14]: 37%; inhibition in vivo at 0.2 mg [15]: 28%
c1cc2cccc3c4cccc5cccc(c(c1)c23)c54 [Compound 27, Perylene]				1.4342	1.3148	1.5227	1.6044	9		inhibition in vivo at 0.1 mg [12]: 11%; inhibition in vivo at 0.05 mg [13]: 19%; inhibition in vivo at 0.1 mg [14]: 5%; inhibition in vivo at 0.2 mg [15]: 1%
C1=CCC2=C(C1)CC1=C(CC=CC1)C2 [Compound 21, 1,4,5,8,9,10-Hexahydroanthracene]	23	13	21	1.2624	1.4036	1.4121	1.2947	17		inhibition in vivo at 0.1 mg [3]: 13%
c1ccc2cc3cc4cc5ccccc5cc4cc3cc2c1 [Compound 28, Pentacene]	13	22	11	1.4102	1.2780	1.5384	1.4278	12		inhibition in vivo at 0.1 mg [3]: 4%
c1ccc(-c2c3ccccc3c(-c3ccccc3)c3ccccc23)cc1 [Compound 22, 9,10-Diphenylanthracene]				1.4120	0.9936	1.5171	1.5913	15		inhibition in vivo at 0.1 mg [12]: 13%; inhibition in vivo at 0.05 mg [13]: 41%; inhibition in vivo at 0.1 mg [14]: 5%; inhibition in vivo at 0.2 mg [15]: 0%
c1ccc2c(c1)C1c3ccccc3C2c2ccccc21 [Compound 7, Triptycene]									0.4655	inhibition of FV-induced splenomegaly / anti-retroviral activity: significantly inhibited FV-induced splenomegaly; inhibition in vivo at 0.1 mg [11]: 45.6%
c1cc2ccc3ccc4ccc5ccc6ccc1c1c2c3c4c5c61 [Compound 8, Coronene]									0.4739	inhibition of FV-induced splenomegaly / anti-retroviral activity: significantly inhibited FV-induced splenomegaly; inhibition in vivo at 0.1 mg [10]: 44.6%
O=C1CC2CC(=O)c3ccc4ccccc4c3C2c2c1ccc1ccccc21 (centres unmarked) [Compound 13, 3,4,4A,5,6,12C-Hexahydrophenanthro (3,4-C)Phenanthrene-3,6-Dione]									0.4742	inhibition in vivo at 0.1 mg [11]: 44.6%
c1ccc2c(c1)ccc1ccc3ccc4ccc5ccccc5c4c3c12 [Compound 14, Phenanthro(3,4-C)Phenanthrene]									0.5419	inhibition in vivo at 0.1 mg [10]: 36.6%
O=c1oc(=O)c2c3ccc4ccc5ccc6ccc7ccc(c12)c1c7c6c5c4c31 [Compound 6, 3,4-Coronenedicarboxylic anhydride]									0.8700	
C1CCc2c(c3c(c4c2CCCC4)CCCC3)C1 [Compound 16, Dodecahydrotriphenylene]				1.1867	0.9508	1.6057	1.2478	24		Actual Spleen Weight (dose 2 × 100 (micrograms) i.p., second dose 24-48 hours later, Table III): 1.161 and 1.2072; Average Perdosage % Inhibition [5]: 28%; Average Perdosage % Inhibition [6]: 44%; Actual Spleen Weight [6]: 0.9062 and 0.9954; Actual Spleen Weight [7]: 1.6206 and 1.5907; Average Perdosage % Inhibition [8]: 24%; Actual Spleen Weight [8]: 1.2007 and 1.2948
O=c1c2ccccc2oc2ccccc12 [Compound 31, Xanthone]				0.9003	1.0006	0.9806	0.9431	59		inhibition in vivo at 0.1 mg [12]: 62%; inhibition in vivo at 0.05 mg [13]: 57%; inhibition in vivo at 0.1 mg [14]: 58%; inhibition in vivo at 0.2 mg [15]: 60%
O=C1C(c2ccccc2)=C(c2ccccc2)C(c2ccccc2)=C1c1ccccc1 [Compound 24, Tetraphenylcyclo pentadienone]	24	20	6	1.2437	1.2959	1.3940	1.5070	16		inhibition in vivo at 0.1 mg [3]: 14%
